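Five concentrations, 48 hours, 96-well plates. GI50 = concentration required for 50% inhibition of growth. TGI is the concentration that stops growth completely.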

Among the data in PubChem BioAssay (NCI) are GI50 and TGI values, retold here.

Common to all, as to assay: NCI-60 cell line screen, 48 h
Test [1] relates to NCI/ADR-RES ovarian.
For test [2], the system named is MDA-MB-231 breast.
In test [3] the test system is MDA-MB-435.
For test [4], the system named is MDA-N.

As to `Clc1nc(Cl)c2ncn(Cc3ccc(COc4cccc(OCc5ccc(Cn6cnc7c(Cl)nc(Cl)nc76)cc5)c4)cc3)c2n1`, the GI50 is 39.5 µM in test [1], 17.4 µM in test [2] and 26.7 µM in test [3]. Further, the results for the TGI in test [1], in test [2] and in test [3] were over 100 µM, 53.2 µM and over 100 µM, respectively.

Turning to `Cc1ccc(C(O)c2cnc(C)n2Cc2ccccc2)cc1` (stereo unspecified), the TGI in test [4], in test [1], in test [2] and in test [3] was over 100 µM throughout.

As to `O=C1/C(=C/c2ccc(O)cc2)COc2ccc(-c3ccccc3)cc21`, the figures for the GI50 in test [1], in test [2] and in test [3] were 10.9 µM, 8.25 µM and 4.23 µM, respectively. For the same compound, the results for the TGI in test [1], in test [2] and in test [3] were 53.9 µM, 27.3 µM and 35.8 µM, respectively.

Take `C=C(C)C(=O)O[C@H]1[C@H]2[C@H](OC(=O)[C@H]2C)[C@H](O)[C@@H](C)[C@@H]2C=CC(=O)[C@]21C`: the TGI was 7.68 µM in test [4], 9.61 µM in test [1], 14 µM in test [2] and 7.28 µM in test [3].

Regarding `CCCCN(Cc1ccc(F)cc1)c1ccc(CO)c(Cl)c1`, the GI50 in test [1] is 14.1 µM; in test [2] it was 14.8 µM; in test [3] it was 17.6 µM. The TGI was found to be 29.3 µM in test [1], 29 µM in test [2] and 35.1 µM in test [3].

As for `COc1cc[nH]c1/C=C1\C(=O)Nc2ccc(F)c(I)c21`, the GI50 in test [1], in test [2] and in test [3] was over 25 µM in each case. The TGI in test [1], in test [2] and in test [3] was over 25 µM throughout.

In the case of `CCCCn1cnc2c(SC)ncnc21`, the TGI in test [4], in test [1], in test [2] and in test [3] was over 100 µM each time.

`CN(CCOc1ccc(C#N)cc1)CCOc1ccc(C#N)cc1`: the GI50 in test [1] was 43.8 µM; in test [2] it was over 100 µM; in test [3] it was 78.8 µM. In addition, the TGI in test [1], in test [2] and in test [3] was over 100 µM each time.

As for `CN(C)CCOc1ccc2c(c1)C/C(=C/c1ncc([N+](=O)[O-])n1C)C2=O`, the TGI in test [4] is 16.8 µM; in test [1] it was 34.1 µM; in test [2] it was 8.42 µM; in test [3], 11.5 µM.

As to `O=C(CCl)N1c2ccccc2Sc2c1ccc1ccccc21`, the GI50 was 2.74 µM in test [1], 2.09 µM in test [2] and 2.41 µM in test [3]. In addition, the TGI in test [1] was determined as 6.55 µM; in test [2] it was 4.36 µM; in test [3], 7.06 µM.

For `CC(=O)O[C@@H]1CC2C(C)(C)CCCC2(C)C2=C1C(=O)C(C(C)C)=CC2=O` (stereo partly specified), the GI50 in test [1] was 2.96 µM; in test [2] it was 0.657 µM; in test [3] it was 0.481 µM. Moreover, the TGI in test [1] is over 100 µM; in test [2], 3.13 µM; in test [3] it was 1.93 µM.

Regarding `COC(=O)CNC(=O)[C@@H](OC)[C@@H]1Cc2cc3cc(OC4CC(OC5CC(O)C(O)C(C)O5)C(O)C(C)O4)c(C)c(O)c3c(O)c2C(=O)[C@H]1OC1CC(OC2CC(OC3CC(C)(O)C(O)C(C)O3)C(O)C(C)O2)C(O)C(C)O1` (stereo partly specified), the figures for the GI50 in test [1], in test [2] and in test [3] were 48.5 µM, 0.267 µM and 0.166 µM, respectively. The figures for the TGI in test [1], in test [2] and in test [3] were over 50 µM, over 50 µM and 1.25 µM, respectively.

Take `Fc1ccc2[nH]c3c(NCCCN4CCOCC4)ncnc3c2c1`: the figures for the GI50 in test [1], in test [2] and in test [3] were over 100 µM, 23.6 µM and 51 µM, respectively. Also, the TGI in test [1], in test [2] and in test [3] was over 100 µM in each case.

`COc1ccc2c(c1)OC(N(C(C)=O)C(C)=O)=C(C#N)C2c1ccc(F)cc1` (stereo unspecified): in test [1], the GI50 is 0.953 µM and the TGI was over 100 µM. Further, in test [2], the GI50 was 2.4 µM and the TGI is over 100 µM.

Take `CN(C)C(=S)N=Nc1c(O)[nH]c2ccccc12`: the GI50 was 0.334 µM in test [1], 1.11 µM in test [2] and 0.757 µM in test [3]. For the same compound, the TGI in test [1] worked out at 2.15 µM; in test [2], 17.6 µM; in test [3], 17.3 µM.

On to `CC(CNC(Cc1ccccc1)c1ccccc1)NC(Cc1ccccc1)c1ccccc1` (stereo unspecified), for which the figures for the GI50 in test [1], in test [2] and in test [3] were 1.83 µM, 1.81 µM and 2.1 µM, respectively. Besides, the values for the TGI in test [1], in test [2] and in test [3] were 4.17 µM, 3.7 µM and 4.99 µM, respectively.

For the compound `Clc1nc(Cl)c2c(ncn2C/C=C\Cn2cnc3c(Cl)nc(Cl)nc32)n1`, the GI50 in test [1] is 2.69 µM; in test [2], 1.88 µM; in test [3] it was 1.93 µM. Also, the figures for the TGI in test [1], in test [2] and in test [3] were 11.1 µM, 3.65 µM and 4.51 µM, respectively.

`COc1cc(Nc2nc(N[C@H]3CCCC[C@@H]3N)nc3cc[nH]c(=O)c23)cc(OC)c1`: the results for the GI50 in test [1], in test [2] and in test [3] were 41.4 µM, 1.99 µM and 0.997 µM, respectively. Moreover, the results for the TGI in test [1], in test [2] and in test [3] were over 100 µM, 9.35 µM and 2.6 µM, respectively.

Take `CC(C)(C)c1ccc(S(=O)(=O)N[C@H]2CC[C@H]3[C@@H]4CCc5cc(OS(=O)(=O)O)ccc5[C@H]4CC[C@]23C)cc1`: the GI50 in test [1] was 2.39 µM; in test [2], 1.94 µM; in test [3] it was 2.32 µM. Besides, the figures for the TGI in test [1], in test [2] and in test [3] were 7.03 µM, 4.26 µM and 5.9 µM, respectively.

As for `Cn1ccnc1C(=O)/C=C/c1ccc(CC(=O)Nc2ccccc2)cc1`, the GI50 is 7.54 µM in test [1], 2.37 µM in test [2] and 4.3 µM in test [3]. Moreover, the results for the TGI in test [1], in test [2] and in test [3] were over 25 µM, 9.61 µM and 13.7 µM, respectively.

For the compound `CN(C)c1ccc2cc(-c3ccccc3F)c(N)nc2c1`, the GI50 was 1.06 µM in test [1], 3.71 µM in test [2] and 0.288 µM in test [3]. For the same compound, the TGI was 12.3 µM in test [1], 19.6 µM in test [2] and 10.3 µM in test [3].
